Series [1] is described as follows: Water stability (conversion of prodrug to 1,3PDS). It is filed as physicochemical. The conditions noted are these: deionized water; for Conversion to 1,3PDS (%) 1 h / Conversion to 1,3PDS (%) 2 h: 37° C.; for Conversion to 1,3PDS (%) 0 h / Conversion to 1,3PDS (%) 24 h: room temperature; for Conversion to 1,3PDS (%) 0 h: 200 μg/mL. The procedure: The objective of this test was to determine the stability of the prodrugs in simulated gastric fluid (SGF) and water at 37° C. up to 2 hours and in water at room temperature up to 24 hours.
Simulated gastric fluid and water samples were incubated in a shaking water bath at 37° C. for up to 2 hours. The compound (prodrug) was added at Time-point 0. At each selected time point (refer to table), sample aliquots were withdrawn and analyzed to determine the concentration of 1,3-propanedisulfonic acid (1,3PDS). The concentrations of 1,3PDS were calculated based on their respective peak area. The % appearance of 1,3PDS was determined by the amounts of compound determined at each time point compared to nominal concentration (100%) of 1,3PDS generated by 100% of the prodrug (equivalent concentration).
A fresh stock solution at approximately 2 mg/mL of the compound was prepared. One stability solution at 200 μg/mL in the SGF was prepared (sample referred to as Tube A). A stability solution at 200 μg/mL in deionized water was prepared (sample referred to as Tube B). Immediately after preparation, each 200 μg/mL solution was diluted in triplicates to 20 μg/mL in deionized water and analyzed using LC-MS/MS method (Time-point 0). Thereafter, the incubation of tubes A and B was continued in the shaking water bath at 37° C. for 1 and 2 hours while one aliquot of tube B was kept at room temperature for 24 hours. At each specific time point of incubation, 3 aliquots (triplicate) of 50 μL were removed, diluted in 450 μL of water and analyzed using LC-MS/MS method. In parallel, 3 reference samples of 1,3PDS at 100, 10 and 1 μg/mL were prepared, diluted in triplicate in water and injected at the beginning and at the end of the batch. These samples were considered as reference samples.
The concentrations of 1,3PDS were calculated based on response of the reference samples and their respective peak area response. The % appearance of 1,3PDS was determined by the amounts of compound determined at each time point compared to expected nominal concentration (100%) of 1,3PDS generated by 100% of the prodrug (equivalent concentration).

In series [2] the test system is Salmonella typhimurium strains (TA1535, TA1537, TA98, TA100) and Escherichia coli strain WP2 uvrA. Description: Bacterial mutation tests (Ames test). It is filed as cell-based. The conditions noted are these: 1.58 to 5000 μg/plate, pre-incubation version; for Bacterial mutation test result in presence of S9: with S9 mix; for Bacterial mutation test result in absence of S9: without S9 mix. The protocol: Bacterial mutation tests were performed at Charles River Laboratories to evaluate the mutagenic potential of various prodrugs. Salmonella typhimurium strains (TA1535, TA1537, TA98, TA100) and Escherichia coli strain WP2 uvrA were treated with prodrugs at concentrations ranging from 1.58 to 5000 μg/plate in the presence and absence of a supplemented liver fraction (S9 mix) using the pre-incubation version of the bacterial mutation test. All concentrations of each compound were evaluated in triplicate. Bacteria were incubated with standard positive control agents, and the response of the various bacterial strains to these agents confirmed the sensitivity of the test system and the activity of the S9 mix.
A general note: The Ames test detects mutagens through reverse mutation in bacteria.

The nature of series [3]: In vivo study in ferrets (clinical signs after oral gavage). The following applies: male ferrets, oral administration, standard dose as printed. The protocol: One group of three male non-naïve ferrets (domestic strain, >16 weeks, >1.2 Kg) were starved for approximately 1.5 h prior to administration of a dosing formulation. Food was given 2 hours post dose. […] The dosing volume was adjusted to 5 mL/kg. Clinical signs were recorded throughout the study period. […] Plasma samples were stored frozen at −80° C. pending transfer to analysis. An aliquot of dosing solution (0.5 mL) was taken prior to dosing and stored frozen at −20° C. pending transfer to analysis. Animals used for multiple studies after a wash out of a minimum twelve day period.

For the compound `CC(C)(C)COS(=O)(=O)CCCS(=O)(=O)[O-].[Na+]` [A6(Na)], in series [1], the “Conversion to 1,3PDS (%) 1 h” value came out at 1.0%, the “Conversion to 1,3PDS (%) 2 h” value is given as 1.6%, the “Conversion to 1,3PDS (%) 0 h” value stood at 0.4% and the “Conversion to 1,3PDS (%) 24 h” value came to 1.4%.

As for `CCOC(=O)C(C)(C)C(C)OS(=O)(=O)CCCS(=O)(=O)OC(C)C(C)(C)C(=O)OCC` (centres unmarked) [Compound B68], in series [2], the “Bacterial mutation test result in presence of S9” value is on record as “Negative” and the “Bacterial mutation test result in absence of S9” value was “Negative”.

On to `CCOC(=O)C(OS(=O)(=O)CCCS(=O)(=O)OC(C(=O)OCC)C(C)C)C(C)C` (centres unmarked) [Compound B83], for which the “Clinical signs / side effects in ferrets” value in series [3] was “no clinical signs”. Also, in series [2], the “Bacterial mutation test result in presence of S9” value is given as “Negative” and the “Bacterial mutation test result in absence of S9” value was “Negative”.

As for `O=S1(=O)CCCS(=O)(=O)OCO1` [Compound C2], the “Clinical signs / side effects in ferrets” value in series [3] is recorded as “severe toxicity”.

For `CC(C)(COS(=O)(=O)CCCS(=O)(=O)OCC(C)(C)C(=O)O)C(=O)O` [Compound B58], the “Clinical signs / side effects in ferrets” value in series [3] is recorded as “vomiting”. In series [2], the “Bacterial mutation test result in presence of S9” value is listed as “Positive” and the “Bacterial mutation test result in absence of S9” value was “Positive”.

Turning to `CCOC(=O)C(C)(C)COS(=O)(=O)CCCS(=O)(=O)OCC(C)(C)C(=O)OCC` [Compound B29], the “Clinical signs / side effects in ferrets” value in series [3] is listed as “no clinical signs”. Further, in series [2], the “Bacterial mutation test result in presence of S9” value is “Positive” and the “Bacterial mutation test result in absence of S9” value was “Negative”.

As for `CCOC(=O)C(C)(N)COS(=O)(=O)CCCS(=O)(=O)O` (centres unmarked) [Compound A61], the “Clinical signs / side effects in ferrets” value in series [3] is given as “no clinical signs”. In addition, in series [2], the “Bacterial mutation test result in presence of S9” value is given as “Positive” and the “Bacterial mutation test result in absence of S9” value is recorded as “Positive”.

In the case of `CC(C)[C@H](N)C(=O)NCCC(C)(C)COS(=O)(=O)CCCS(=O)(=O)OCC(C)(C)CCNC(=O)[C@@H](N)C(C)C` [Compound B14], in series [1], the “Conversion to 1,3PDS (%) 1 h” value was determined as 0.0%, the “Conversion to 1,3PDS (%) 2 h” value came out at 0.0% and the “Conversion to 1,3PDS (%) 0 h” value is 0.0%.

Turning to `CC1(COS(=O)(=O)CCCS(=O)(=O)OCC2(C)CCOC2=O)CCOC1=O` (centres unmarked) [Compound B76], the “Clinical signs / side effects in ferrets” value in series [3] is on record as “no clinical signs”. In series [2], the “Bacterial mutation test result in presence of S9” value was “Negative” and the “Bacterial mutation test result in absence of S9” value is recorded as “Negative”.

`CC1(C)COC(=O)C1OS(=O)(=O)CCCS(=O)(=O)OC1C(=O)OCC1(C)C` (centres unmarked) [Compound B77]: the “Clinical signs / side effects in ferrets” value in series [3] is listed as “no clinical signs”. For the same compound, in series [2], the “Bacterial mutation test result in presence of S9” value is “Negative” and the “Bacterial mutation test result in absence of S9” value is “Negative”.

In the case of `CC(OC(=O)NCCC(C)(C)COS(=O)(=O)CCCS(=O)(=O)OCC(C)(C)CCNC(=O)OC(C)OC(=O)C(C)C)OC(=O)C(C)C` (centres unmarked) [Compound B13], in series [1], the “Conversion to 1,3PDS (%) 1 h” value was determined as 0.4%, the “Conversion to 1,3PDS (%) 2 h” value was 0.4% and the “Conversion to 1,3PDS (%) 0 h” value was found to be 0.3%.

`CCOC(=O)C(OS(=O)(=O)CCCS(=O)(=O)OC(C(=O)OCC)C(C)(C)C)C(C)(C)C` (centres unmarked) [Compound B82]: the “Clinical signs / side effects in ferrets” value in series [3] was “no clinical signs”.

As for `CC(OC(=O)NCCC(C)(C)COS(=O)(=O)CCCS(=O)(=O)O)OC(=O)C(C)C` (centres unmarked) [Compound A13], in series [1], the “Conversion to 1,3PDS (%) 1 h” value came out at 0.0%, the “Conversion to 1,3PDS (%) 2 h” value worked out at 0.0%, the “Conversion to 1,3PDS (%) 0 h” value is given as 0.0% and the “Conversion to 1,3PDS (%) 24 h” value is reported as 0.0%.

On to `CC(C)(CNC(=O)[C@@H](N)Cc1ccccc1)COS(=O)(=O)CCCS(=O)(=O)O` [Compound A51], for which, in series [3], the “Clinical signs / side effects in ferrets” value is listed as “no clinical signs”. Further, in series [2], the “Bacterial mutation test result in presence of S9” value is reported as “Negative” and the “Bacterial mutation test result in absence of S9” value is on record as “Negative”. In addition, in series [1], the “Conversion to 1,3PDS (%) 1 h” value worked out at 14%, the “Conversion to 1,3PDS (%) 2 h” value stood at 18% and the “Conversion to 1,3PDS (%) 0 h” value worked out at 13%.

Regarding `CCCC(=O)OCOS(=O)(=O)CCCS(=O)(=O)OCOC(=O)CCC` [Compound D3], in series [3], the “Clinical signs / side effects in ferrets” value is reported as “abdominal contracting and/or vomiting”.

For the compound `CC(C)(C)C(=O)OCOS(=O)(=O)CCCS(=O)(=O)OCOC(=O)C(C)(C)C` [Compound D1], the “Clinical signs / side effects in ferrets” value in series [3] was “green face”.

Take `O=C(OCOS(=O)(=O)CCCS(=O)(=O)OCOC(=O)C1CCCCC1)C1CCCCC1` [Compound D5]: the “Clinical signs / side effects in ferrets” value in series [3] is on record as “abdominal contracting and/or vomiting”.

For the compound `CC1(COS(=O)(=O)CCCS(=O)(=O)OCC2(C)CCC(=O)O2)CCC(=O)O1` (centres unmarked) [Compound B78], in series [2], the “Bacterial mutation test result in presence of S9” value is listed as “Negative” and the “Bacterial mutation test result in absence of S9” value was “Negative”.

On to `CC(C)(CNC(=O)[C@H](Cc1ccccc1)NC(=O)OC(C)(C)C)COS(=O)(=O)CCCS(=O)(=O)[O-].[Na+]` [A52(K)], for which, in series [1], the “Conversion to 1,3PDS (%) 1 h” value was 14.6%, the “Conversion to 1,3PDS (%) 2 h” value stood at 18.8%, the “Conversion to 1,3PDS (%) 0 h” value is on record as 7.0% and the “Conversion to 1,3PDS (%) 24 h” value was found to be 21.3%.

`CCOC(=O)CCC(C)(C)COS(=O)(=O)CCCS(=O)(=O)OCC(C)(C)CCC(=O)OCC` [Compound B75]: the “Clinical signs / side effects in ferrets” value in series [3] is recorded as 2 out of 3 animals showed abdomen scratching but recovered after 1 h. Moreover, in series [2], the “Bacterial mutation test result in presence of S9” value is reported as “Negative” and the “Bacterial mutation test result in absence of S9” value is given as “Negative”.

With `CC(C)(CCOC(=O)c1ccccc1)COS(=O)(=O)CCCS(=O)(=O)OCC(C)(C)CCOC(=O)c1ccccc1` [Compound B23], in series [1], the “Conversion to 1,3PDS (%) 1 h” value is given as 0.0%, the “Conversion to 1,3PDS (%) 2 h” value came to 0.0%, the “Conversion to 1,3PDS (%) 0 h” value amounted to 0.0% and the “Conversion to 1,3PDS (%) 24 h” value was 0.0%.

For `CCC(=O)OCOS(=O)(=O)CCCS(=O)(=O)OCOC(=O)CC` [Compound D7], in series [3], the “Clinical signs / side effects in ferrets” value was “abdominal contracting and/or vomiting”.

As for `CC(C)[C@H](N)C(=O)NCCC(C)(C)COS(=O)(=O)CCCS(=O)(=O)O` [Compound A14], in series [1], the “Conversion to 1,3PDS (%) 1 h” value turned out to be 0.4%, the “Conversion to 1,3PDS (%) 2 h” value is 1.4% and the “Conversion to 1,3PDS (%) 0 h” value stood at 0.2%.

The values above are taken from US9051248B2, “Methods, compounds, and compositions for delivering 1,3-propanedisulfonic acid” (BHI Limited Partnership, priority 2009, dated 2015).
